{
  "source": "ChEMBL document CHEMBL4038272",
  "about": "“Synthesis and biological evaluation of novel podophyllotoxin-NSAIDs conjugates as multifunctional anti-MDR agents against resistant human hepatocellular carcinoma Bel-7402/5-FU cells” (Eur J Med Chem, 2017)",
  "key": {"[1]": {"test_system": "Bel-7402", "test": "Antiproliferative activity against human Bel7402 cells after 72 hrs by CCK-8 assay", "assay_type": "functional, cell-based", "settings": "Bel-7402, 72 h"}, "[2]": {"test_system": "Bel7402/5-FU", "test": "Antiproliferative activity against human Bel7402/5-FU cells after 72 hrs by CCK-8 assay", "assay_type": "functional, cell-based"}, "[3]": {"test_system": "L02", "test": "Antiproliferative activity against human LO2 cells after 72 hrs by CCK-8 assay", "assay_type": "cell-based", "settings": "L02, 72 h"}, "[4]": {"test": "Resistant factor, ratio of IC50 for human Bel7402/5-FU cells to IC50 for human Bel7402 cells", "assay_type": "functional"}, "[5]": {"test_system": "Bel7402/5-FU", "test": "Cell cycle arrest in human Bel7402/5-FU cells assessed as accumulation at G1 phase at 10 uM after 48 hrs by propidium iodide staining based flow cytometry (reference value: 52.21%)", "assay_type": "functional"}, "[6]": {"test_system": "Bel7402/5-FU", "test": "Cell cycle arrest in human Bel7402/5-FU cells assessed as accumulation at S phase at 10 uM after 48 hrs by propidium iodide staining based flow cytometry (reference value: 12.62%)", "assay_type": "functional"}, "[7]": {"test_system": "Bel7402/5-FU", "test": "Cell cycle arrest in human Bel7402/5-FU cells assessed as accumulation at G2 phase at 10 uM after 48 hrs by propidium iodide staining based flow cytometry (reference value: 35.16%)", "assay_type": "functional"}, "[8]": {"test_system": "Bel7402/5-FU", "test": "Induction of apoptosis in human Bel7402/5-FU cells assessed as reduction in cell number at 10 uM after 24 hrs by Hoechst 33342 staining based fluorescent microscopic method", "assay_type": "functional"}, "[9]": {"test_system": "Bel7402/5-FU", "test": "Induction of apoptosis in human Bel7402/5-FU cells assessed as morphological changes at 10 uM after 24 hrs by Hoechst 33342 staining based fluorescent microscopic method", "assay_type": "functional, cell-based"}, "[10]": {"test_system": "Bel7402/5-FU", "test": "Induction of apoptosis in human Bel7402/5-FU cells assessed as condensed nuclei at 10 uM after 24 hrs by Hoechst 33342 staining based fluorescent microscopic method", "assay_type": "functional, cell-based"}, "[11]": {"test_system": "Bel7402/5-FU", "test": "Induction of apoptosis in human Bel7402/5-FU cells at 10 uM after 24 hrs by Hoechst 33342 staining based fluorescent microscopic method", "assay_type": "functional, cell-based"}, "[12]": {"test_system": "Bel7402/5-FU", "test": "Induction of apoptosis in human Bel7402/5-FU cells assessed as live cells at 10 uM after 48 hrs by Annexin V-APC/7-AAD staining based flow cytometry (reference value: 91.08%)", "assay_type": "functional"}, "[13]": {"test_system": "Bel7402/5-FU", "test": "Induction of apoptosis in human Bel7402/5-FU cells assessed as early apoptotic cells at 10 uM after 48 hrs by Annexin V-APC/7-AAD staining based flow cytometry (reference value: 5.24%)", "assay_type": "functional"}, "[14]": {"test_system": "Bel7402/5-FU", "test": "Induction of apoptosis in human Bel7402/5-FU cells assessed as late apoptotic cells at 10 uM after 48 hrs by Annexin V-APC/7-AAD staining based flow cytometry (reference value: 3%)", "assay_type": "functional"}, "[15]": {"test_system": "Bel7402/5-FU", "test": "Induction of apoptosis in human Bel7402/5-FU cells assessed as necrotic cells at 10 uM after 48 hrs by Annexin V-APC/7-AAD staining based flow cytometry (reference value: 0.58%)", "assay_type": "functional"}, "[16]": {"test_system": "Bel7402/5-FU", "test": "Induction of microtubule disruption in human Bel7402/5-FU cells at 10 uM after 24 to 48 hrs by DAPI staining based immunofluorescence microscopic method", "assay_type": "functional, cell-based"}, "[17]": {"test_system": "Bel7402/5-FU", "test": "Reduction in microtubule density in human Bel7402/5-FU cells at 10 uM after 24 to 48 hrs by DAPI staining based immunofluorescence microscopic method", "assay_type": "functional, cell-based"}, "[18]": {"test_system": "Bel7402/5-FU", "test": "Antimigratory activity in human Bel7402/5-FU cells at 10 uM after 24 hrs by wound healing assay", "assay_type": "functional, cell-based"}, "[19]": {"test_system": "Bel7402/5-FU", "test": "Effect on CDK1 expression in human Bel7402/5-FU cells assessed as ratio of CDK1 to beta-actin level at 10 uM after 48 hrs by Western blot analysis (reference value: 0.33)", "assay_type": "functional"}, "[20]": {"test_system": "Bel7402/5-FU", "test": "Effect on CDK2 expression in human Bel7402/5-FU cells assessed as ratio of CDK2 to beta-actin level at 10 uM after 48 hrs by Western blot analysis (reference value: 0.43)", "assay_type": "functional"}, "[21]": {"test_system": "Bel7402/5-FU", "test": "Effect on cyclinA expression in human Bel7402/5-FU cells assessed as ratio of cyclinA to beta-actin level at 10 uM after 48 hrs by Western blot analysis (reference value: 0.39)", "assay_type": "functional"}, "[22]": {"test_system": "Bel7402/5-FU", "test": "Effect on cyclinB1 expression in human Bel7402/5-FU cells assessed as ratio of cyclinB1 to beta-actin level at 10 uM after 48 hrs by Western blot analysis (reference value: 0.53)", "assay_type": "functional"}, "[23]": {"test_system": "Bel7402/5-FU", "test": "Induction of apoptosis in human Bel7402/5-FU cells assessed as ratio of cleaved caspase-3 to beta-actin level at 10 uM after 48 hrs by Western blot analysis (reference value: 0.19)", "assay_type": "functional"}, "[24]": {"test_system": "Bel7402/5-FU", "test": "Induction of apoptosis in human Bel7402/5-FU cells assessed as ratio of cleaved caspase-8 to beta-actin level at 10 uM after 48 hrs by Western blot analysis (reference value: 0.17)", "assay_type": "functional"}, "[25]": {"test_system": "Bel7402/5-FU", "test": "Induction of apoptosis in human Bel7402/5-FU cells assessed as ratio of cleaved caspase-9 to beta-actin level at 10 uM after 48 hrs by Western blot analysis (reference value: 0.17)", "assay_type": "functional"}, "[26]": {"test_system": "Bel7402/5-FU", "test": "Induction of apoptosis in human Bel7402/5-FU cells assessed as ratio of cleaved PARP to beta-actin level at 10 uM after 48 hrs by Western blot analysis (reference value: 0.2)", "assay_type": "functional"}, "[27]": {"test_system": "Bel7402/5-FU", "test": "Effect on VEGFR2 expression in human Bel7402/5-FU cells assessed as ratio of VEGFR2 to beta-actin level at 10 uM after 48 hrs by Western blot analysis (reference value: 0.25)", "assay_type": "functional"}, "[28]": {"test_system": "Bel7402/5-FU", "test": "Effect on MMP2 expression in human Bel7402/5-FU cells assessed as ratio of MMP2 to beta-actin level at 10 uM after 48 hrs by Western blot analysis (reference value: 0.3)", "assay_type": "functional"}, "[29]": {"test_system": "Bel7402/5-FU", "test": "Effect on E-cadherin expression in human Bel7402/5-FU cells assessed as ratio of E-cadherin to beta-actin level at 10 uM after 48 hrs by Western blot analysis (reference value: 0.2)", "assay_type": "functional"}, "[30]": {"test_system": "Bel7402/5-FU", "test": "Effect on COX1 expression in human Bel7402/5-FU cells assessed as ratio of COX1 to beta-actin level at 10 uM after 48 hrs by Western blot analysis (reference value: 0.48)", "assay_type": "functional"}, "[31]": {"test_system": "Bel7402/5-FU", "test": "Effect on COX2 expression in human Bel7402/5-FU cells assessed as ratio of COX2 to beta-actin level at 10 uM after 48 hrs by Western blot analysis (reference value: 0.36)", "assay_type": "functional"}, "[32]": {"test_system": "Bel7402/5-FU", "test": "Effect on iNOS expression in human Bel7402/5-FU cells assessed as ratio of iNOS to beta-actin level at 10 uM after 48 hrs by Western blot analysis (reference value: 0.13)", "assay_type": "functional"}, "[33]": {"test_system": "Bel7402/5-FU", "test": "Effect on P-gp expression in human Bel7402/5-FU cells assessed as ratio of P-gp to beta-actin level at 10 uM after 48 hrs by Western blot analysis (reference value: 0.59)", "assay_type": "functional"}, "[34]": {"test_system": "Bel7402/5-FU", "test": "Effect on MRP1 expression in human Bel7402/5-FU cells assessed as ratio of MRP1 to beta-actin level at 10 uM after 48 hrs by Western blot analysis (reference value: 0.58)", "assay_type": "functional"}, "[35]": {"target": "Mitogen-activated protein kinase; ERK1/ERK2 (Homo sapiens) (UniProt P27361+P28482)", "sequence (P27361 whole entry, looked up)": "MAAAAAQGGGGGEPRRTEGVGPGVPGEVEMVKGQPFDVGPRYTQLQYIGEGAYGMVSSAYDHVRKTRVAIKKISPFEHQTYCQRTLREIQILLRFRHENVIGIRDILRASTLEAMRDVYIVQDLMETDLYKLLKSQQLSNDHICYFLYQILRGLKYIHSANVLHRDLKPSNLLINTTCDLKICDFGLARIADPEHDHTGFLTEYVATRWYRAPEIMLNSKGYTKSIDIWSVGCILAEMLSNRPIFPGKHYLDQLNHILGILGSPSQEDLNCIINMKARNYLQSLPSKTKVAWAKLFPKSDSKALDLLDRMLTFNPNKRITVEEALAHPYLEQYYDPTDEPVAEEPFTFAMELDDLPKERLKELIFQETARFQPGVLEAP", "sequence (P28482 whole entry, looked up)": "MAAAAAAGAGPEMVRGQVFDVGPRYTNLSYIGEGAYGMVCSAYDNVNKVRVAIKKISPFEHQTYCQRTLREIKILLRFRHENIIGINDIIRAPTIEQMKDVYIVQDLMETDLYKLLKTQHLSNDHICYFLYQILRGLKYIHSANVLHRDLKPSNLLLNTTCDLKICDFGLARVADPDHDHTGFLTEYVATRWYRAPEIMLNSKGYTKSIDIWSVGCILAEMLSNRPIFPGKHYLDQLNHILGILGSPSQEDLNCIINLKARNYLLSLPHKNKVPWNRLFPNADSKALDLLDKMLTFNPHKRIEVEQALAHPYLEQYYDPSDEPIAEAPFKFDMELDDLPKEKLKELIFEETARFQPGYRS", "test": "Effect on ERK1/2 phosphorylation in human Bel7402/5-FU cells assessed as ratio of phosphorylated ERK1/2 to beta-actin level at 10 uM after 48 hrs by Western blot analysis (reference value: 0.59)", "assay_type": "cell-based"}, "[36]": {"target": "Signal transducer and activator of transcription 3 (Homo sapiens) (UniProt P40763)", "sequence (P40763 whole entry)": "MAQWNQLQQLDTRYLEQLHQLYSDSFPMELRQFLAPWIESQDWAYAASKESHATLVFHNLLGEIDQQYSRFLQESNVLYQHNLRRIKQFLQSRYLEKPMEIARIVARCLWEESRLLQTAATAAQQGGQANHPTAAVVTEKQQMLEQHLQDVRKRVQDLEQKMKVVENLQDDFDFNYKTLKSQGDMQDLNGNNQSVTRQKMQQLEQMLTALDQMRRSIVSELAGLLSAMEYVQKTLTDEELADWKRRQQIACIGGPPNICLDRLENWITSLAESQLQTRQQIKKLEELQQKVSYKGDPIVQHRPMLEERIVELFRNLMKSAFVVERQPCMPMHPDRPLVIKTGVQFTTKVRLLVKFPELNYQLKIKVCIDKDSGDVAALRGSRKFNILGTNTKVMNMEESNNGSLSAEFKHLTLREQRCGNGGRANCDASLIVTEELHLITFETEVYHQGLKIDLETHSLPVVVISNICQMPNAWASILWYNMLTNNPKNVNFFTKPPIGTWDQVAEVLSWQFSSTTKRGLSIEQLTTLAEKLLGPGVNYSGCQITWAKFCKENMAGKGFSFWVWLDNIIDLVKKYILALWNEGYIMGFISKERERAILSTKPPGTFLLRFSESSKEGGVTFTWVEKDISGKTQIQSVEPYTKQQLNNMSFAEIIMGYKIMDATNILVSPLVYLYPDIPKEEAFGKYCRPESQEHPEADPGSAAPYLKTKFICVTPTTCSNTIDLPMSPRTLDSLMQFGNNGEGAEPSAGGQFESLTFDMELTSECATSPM", "test": "Effect on STAT3 phosphorylation in human Bel7402/5-FU cells assessed as ratio of phosphorylated STAT3 to beta-actin level at 10 uM after 48 hrs by Western blot analysis (reference value: 0.3)", "assay_type": "cell-based"}, "[37]": {"target": "RAC-alpha serine/threonine-protein kinase (Homo sapiens) (UniProt P31749)", "sequence (P31749 whole entry)": "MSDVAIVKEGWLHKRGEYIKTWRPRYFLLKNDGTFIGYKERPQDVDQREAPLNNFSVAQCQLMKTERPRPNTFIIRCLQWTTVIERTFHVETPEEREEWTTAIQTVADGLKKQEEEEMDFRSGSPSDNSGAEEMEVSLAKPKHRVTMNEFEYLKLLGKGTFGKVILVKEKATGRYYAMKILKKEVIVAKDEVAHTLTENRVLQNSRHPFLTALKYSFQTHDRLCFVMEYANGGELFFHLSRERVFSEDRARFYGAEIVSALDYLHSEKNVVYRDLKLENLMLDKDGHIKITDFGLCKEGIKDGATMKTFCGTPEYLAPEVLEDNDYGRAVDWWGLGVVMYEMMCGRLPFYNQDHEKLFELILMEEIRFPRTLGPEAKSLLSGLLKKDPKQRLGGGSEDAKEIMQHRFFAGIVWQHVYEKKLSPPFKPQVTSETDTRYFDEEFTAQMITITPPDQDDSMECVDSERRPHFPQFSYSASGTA", "test": "Effect on AKT phosphorylation in human Bel7402/5-FU cells assessed as ratio of phosphorylated AKT to beta-actin level at 10 uM after 48 hrs by Western blot analysis (reference value: 0.39)", "assay_type": "cell-based"}},
  "note": "Calls of active or inactive are those of the source. The rule behind the calls is not given here.",
  "data": [
    {"smiles": "COc1cc([C@@H]2c3cc4c(cc3[C@H](OC(=O)C(C)c3ccc(CC(C)C)cc3)[C@H]3COC(=O)[C@H]23)OCO4)cc(OC)c1OC", "note": "(some centres not stated)", "values": [
      {"measurement": "IC50", "setting": "[1]", "value": 18.9, "unit": "µM"},
      {"measurement": "IC50", "setting": "[2]", "value": 10.3, "unit": "µM"},
      {"measurement": "IC50", "setting": "[3]", "value": 7.38, "unit": "µM"},
      {"measurement": "Ratio IC50", "setting": "[4]", "value": 0.54},
      {"measurement": "Activity", "setting": "[5]", "value": 8.88, "unit": "%"},
      {"measurement": "Activity", "setting": "[6]", "value": 27.34, "unit": "%"},
      {"measurement": "Activity", "setting": "[7]", "value": 63.78, "unit": "%"},
      {"measurement": "Activity", "setting": "[8]", "value": "Active"},
      {"measurement": "Activity", "setting": "[9]", "value": "Active"},
      {"measurement": "Activity", "setting": "[10]", "value": "Active"},
      {"measurement": "Activity", "setting": "[11]", "value": "Active"},
      {"measurement": "Activity", "setting": "[12]", "value": 62.05, "unit": "%"},
      {"measurement": "Activity", "setting": "[13]", "value": 7.12, "unit": "%"},
      {"measurement": "Activity", "setting": "[14]", "value": 21.24, "unit": "%"},
      {"measurement": "Activity", "setting": "[15]", "value": 9.59, "unit": "%"},
      {"measurement": "Activity", "setting": "[16]", "value": "Active"},
      {"measurement": "Activity", "setting": "[17]", "value": "Active"},
      {"measurement": "Activity", "setting": "[18]", "value": "Active"},
      {"measurement": "Ratio", "setting": "[19]", "value": 0.29},
      {"measurement": "Ratio", "setting": "[20]", "value": 0.38},
      {"measurement": "Ratio", "setting": "[21]", "value": 0.36},
      {"measurement": "Ratio", "setting": "[22]", "value": 0.52},
      {"measurement": "Ratio", "setting": "[23]", "value": 0.33},
      {"measurement": "Ratio", "setting": "[24]", "value": 0.25},
      {"measurement": "Ratio", "setting": "[25]", "value": 0.25},
      {"measurement": "Ratio", "setting": "[26]", "value": 0.35},
      {"measurement": "Ratio", "setting": "[27]", "value": 0.18},
      {"measurement": "Ratio", "setting": "[28]", "value": 0.21},
      {"measurement": "Ratio", "setting": "[29]", "value": 0.29},
      {"measurement": "Ratio", "setting": "[30]", "value": 0.46},
      {"measurement": "Ratio", "setting": "[31]", "value": 0.43},
      {"measurement": "Ratio", "setting": "[32]", "value": 0.23},
      {"measurement": "Ratio", "setting": "[33]", "value": 0.61},
      {"measurement": "Ratio", "setting": "[34]", "value": 0.7},
      {"measurement": "Ratio", "setting": "[35]", "value": 0.55},
      {"measurement": "Ratio", "setting": "[36]", "value": 0.4},
      {"measurement": "Ratio", "setting": "[37]", "value": 0.42}
    ]}
  ]
}
